What was measured:
NCI-H1299 = assay: Inhibition of DNA damage-induced cell cycle arrest in human H1299 cells assessed as progression into mitosis measuring mitosis specific-phosphorylation of nucleolin after 8 hrs by checkpoint escape assay; format: functional, cell-based; conditions: NCI-H1299, 8 h
[1] = biological target: Cyclin-dependent kinase 7 (Homo sapiens, UniProt P50613); assay: Inhibition of CDK7
[2] = biological target: T1, Serine/threonine-protein kinase Chk1 (Homo sapiens, UniProt O14757); assay: Inhibition of CHK1 by time resolved fluorescence assay
T1 sequence (O14757 whole entry): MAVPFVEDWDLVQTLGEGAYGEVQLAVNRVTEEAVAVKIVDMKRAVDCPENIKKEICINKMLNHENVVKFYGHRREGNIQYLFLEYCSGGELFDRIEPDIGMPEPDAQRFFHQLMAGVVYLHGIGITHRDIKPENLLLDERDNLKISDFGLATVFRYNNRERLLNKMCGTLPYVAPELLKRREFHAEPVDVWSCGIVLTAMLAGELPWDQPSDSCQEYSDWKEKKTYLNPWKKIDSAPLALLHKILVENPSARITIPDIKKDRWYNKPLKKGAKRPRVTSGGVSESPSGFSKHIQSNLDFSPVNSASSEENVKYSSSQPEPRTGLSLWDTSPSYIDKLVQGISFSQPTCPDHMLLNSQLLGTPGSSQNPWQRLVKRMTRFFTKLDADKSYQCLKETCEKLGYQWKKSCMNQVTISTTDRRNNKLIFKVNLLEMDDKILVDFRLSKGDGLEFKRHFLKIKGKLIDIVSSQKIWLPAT

Sequence of Cyclin-dependent kinase 7 (P50613 whole entry): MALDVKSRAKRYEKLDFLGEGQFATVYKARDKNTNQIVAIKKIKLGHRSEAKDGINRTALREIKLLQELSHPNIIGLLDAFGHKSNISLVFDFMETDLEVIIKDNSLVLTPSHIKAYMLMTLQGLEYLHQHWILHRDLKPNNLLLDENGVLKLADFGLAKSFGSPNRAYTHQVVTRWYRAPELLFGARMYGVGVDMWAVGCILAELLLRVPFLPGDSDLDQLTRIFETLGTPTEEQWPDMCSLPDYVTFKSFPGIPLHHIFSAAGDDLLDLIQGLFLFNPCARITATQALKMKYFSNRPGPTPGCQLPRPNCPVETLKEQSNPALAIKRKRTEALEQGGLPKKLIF

IC50 [1]	IC50 [2]	SMILES	EC50 (NCI-H1299)
> 10000 nM	–	c1ncc(-c2cncc(-c3cnc(Nc4cc(N5CCOCC5)ccn4)s3)c2)cn1	> 10000 nM
480 nM	21 nM	Brc1cncc(-c2cnc(Nc3cc(N4CCNCC4)ccn3)s2)c1	> 50000 nM
210 nM	–	CC(=O)N1CCN(c2ccnc(Nc3ncc(-c4cncc(C(=O)NCCN)c4)s3)c2)CC1	1210 nM
940 nM	16 nM	NCCNC(=O)c1cncc(-c2cnc(Nc3cc(Cl)ccn3)s2)c1	940 nM
160 nM	8 nM	NCCNC(=O)c1cccc(-c2cnc(Nc3cc(N4CCC(F)(F)CC4)ccn3)s2)c1	> 10000 nM
> 10000 nM	12 nM	NCCCCc1cncc(-c2cnc(Nc3cc(N4CCOCC4)ccn3)s2)c1	–
705 nM	1.6 nM	O=C(NCC(F)(F)F)c1cncc(-c2cnc(Nc3cc(N4CCOCC4)ccn3)s2)c1	198 nM
870 nM	27 nM	Cc1ccc(-c2cnc(Nc3cccc(NCCCN)n3)s2)cn1	> 16700 nM
260 nM	–	c1cc(N2CCNCC2)cc(Nc2ncc(-c3cncc(-c4cn[nH]c4)c3)s2)n1	5530 nM
350 nM	0.07 nM	NCCNC(=O)c1cncc(-c2cnc(Nc3cc(N4CCC(F)CC4)ccn3)s2)c1	484 nM
> 3700 nM	10 nM	NC(=O)c1cncc(-c2cnc(Nc3cc(N4CCOCC4)ccn3)s2)c1	> 10000 nM
340 nM	–	NCCNC(=O)c1cncc(-c2cnc(Nc3cc(N4CCOCC4)ccn3)s2)c1	460 nM
170 nM	–	CS(=O)(=O)N1CCN(c2ccnc(Nc3ncc(-c4cncc(C(=O)NCCN)c4)s3)c2)CC1	500 nM
> 10000 nM	15 nM	O=C(NCCO)c1cncc(-c2cnc(Nc3cc(N4CCOCC4)ccn3)s2)c1	> 10000 nM
> 10000 nM	7 nM	CNC(=O)c1cncc(-c2cnc(Nc3cc(N4CCOCC4)ccn3)s2)c1	300 nM
960 nM	0.3 nM	NCCNC(=O)c1cncc(-c2cnc(Nc3ncccc3Cl)s2)c1	330 nM
1760 nM	–	O=C(CN1CCN(c2ccnc(Nc3ncc(-c4cccnc4)s3)c2)CC1)N1CCOCC1	> 50000 nM
> 10000 nM	16 nM	O=C(O)c1cncc(-c2cnc(Nc3cc(N4CCNCC4)ccn3)s2)c1	> 10000 nM
> 20000 nM	–	Cc1ccc(-c2cnc(Nc3cc(N4CCNCC4)ccn3)s2)cn1	1370 nM
11000 nM	29 nM	c1ncc(-c2cnc(Nc3cc(N4CCNCC4)ccn3)s2)cn1	1530 nM
> 10000 nM	33 nM	NCCNC(=O)c1cncc(-c2cnc(Nc3ccccc3Cl)s2)c1	> 10000 nM
2100 nM	1.7 nM	CS(=O)(=O)N1CCN(c2ccnc(Nc3ncc(-c4cncc(C(=O)NCC(F)(F)F)c4)s3)c2)CC1	106 nM
> 2000 nM	6 nM	Cn1cc(-c2cncc(-c3cnc(Nc4cc(N5CCNCC5)ccn4)s3)c2)cn1	1330 nM
910 nM	0.4 nM	Cc1cccnc1Nc1ncc(-c2cncc(C(=O)NCCN)c2)s1	430 nM
26 nM	33 nM	c1ccc(-c2cnc(Nc3cccc(N4CCNCC4)n3)s2)cc1	> 16700 nM
410 nM	160 nM	c1cc(Nc2ncc(-c3cncnc3)s2)nc(N2CCNCC2)c1	–
> 10000 nM	–	c1cncc(-c2cncc(-c3cnc(Nc4cc(N5CCOCC5)ccn4)s3)c2)c1	> 10000 nM
> 10000 nM	9 nM	c1cn(-c2cncc(-c3cnc(Nc4cc(N5CCOCC5)ccn4)s3)c2)nn1	1390 nM
1000 nM	38 nM	Cc1ccc(-c2cnc(Nc3cccc(N4CCNCC4)n3)s2)cn1	> 16700 nM
> 10000 nM	5 nM	c1cncc(-c2cncc(-c3cnc(Nc4cc(N5CCNCC5)ccn4)s3)c2)c1	570 nM

SMILES	IC50 [1]	IC50 [2]	EC50 (NCI-H1299)
Cc1ccc(NC(=O)c2cncc(-c3cnc(Nc4cc(N5CCOCC5)ccn4)s3)c2)s1	> 10000 nM	12 nM	920 nM

From ChEMBL document CHEMBL2010672, “Pyridyl aminothiazoles as potent Chk1 inhibitors: optimization of cellular activity” (Bioorg Med Chem Lett, 2012)
